Experimental data taken from patent US20240141330A1, “METHODS AND COMPOSITIONS FOR MUTAGENESIS SCREENING IN MAMMALIAN CELLS” (THE BOARD OF REGENTS OF THE UNIVERSITY OF TEXAS SYSTEM, priority 2021, published 2024).
Where two headings read alike, the source gives them in different places.

Tested on: K562 cells harboring doxycycline-inducible BCR-ABL1 variants
Conditions: FIG. 7C
Source text: Values shown are averages±standard error of the mean (SEM) of 2 biological replicates.
For this example, the K562 CML cell line was used as it harbored the BCR-ABL1 fusion gene/protein and was highly sensitive to BCR-ABL1 inhibitors.
LentiMutate may create large and small indels because the HIV-1 RT is known to switch templates and have low processivity. […] As a comparison, also tested was the 35INS variant, a BCR-ABL variant detected in patient samples that truncates BCR-ABL at the end of the kinase domain, producing a kinase dead protein, due to the insertion and usage of a 35 bp sequence in an intron that acts as a novel splicing site.

O=C(Nc1ccc(OC(F)(F)Cl)cc1)c1cnc(N2CC[C@@H](O)C2)c(-c2cc[nH]n2)c1 [asciminib]
Resistance conferred by BCR-ABL1 variant (deletions in ABL1 (−SV11)): did not | Resistance conferred by BCR-ABL1 variant (deletions in BCR (−SV8 and −NTCD)): conferred resistance
